Patent US20230312587A1, “PTERIDINONE COMPOUNDS AND USES THEREOF” (Vertex Pharmaceutical Incorporated, priority 2018, published 2023)

Each compound was assayed on Colo205-TCF/LEF-Luciferase (Luc) tumor (assay: In vivo inhibition of TCF/LEF reporter activity in Colo-205 tumors). Details: TCF/LEF luciferase reporter in Colo-205 tumors, nu/nu mice, oral gavage.
Set-up: concentration or dose not given beside the values
Method in brief: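 Female nu/nu mice carried subcutaneous Colo205-TCF/LEF-luciferase tumours (200–500 mm^3), n=4 per group. Compound was given by oral gavage in 1:3:5:1 EtOH:DMSO:PEG-400:H2O at 10 ml/kg, with vehicle as control. Luciferase activity in tumour lysates (Steady-Glo) was normalised to BCA protein.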

SMILES	Percent Remaining Activity at 8 hrs after Dosing [%]
Cc1nc(NCc2cnn(Cc3ccc(C(F)(F)F)nc3C(C)C)c2)nc2c1NC(=O)[C@H](C)N2C [Compound 388, (7S)-2-(((1-((2-isopropyl-6-(trifluoromethyl)pyridin-3-yl)methyl)-1H-pyrazol-4-yl)methyl)amino)-4,7,8-trimethyl-7,8-dihydropteridin-6(5H)-one]	13
Cc1nc(NCc2cnn(Cc3ccc(C(F)(F)F)cc3)c2)nc2c1NC(=O)[C@H](C)N2C [Compound 149, (7S)-4,7,8-trimethyl-2-(((1-(4-(trifluoromethyl)benzyl)-1H-pyrazol-4-yl)methyl)amino)-7,8-dihydropteridin-6(5H)-one]	17
Cc1nc(NCc2cnn(Cc3ccc(F)nc3)c2)nc2c1NC(=O)[C@H](C(C)C)N2C [Compound 384, (7S)-2-(((1-((6-fluoropyridin-3-yl)methyl)-1H-pyrazol-4-yl)methyl)amino)-7-isopropyl-4,8-dimethyl-7,8-dihydropteridin-6(5H)-one]	14
Cc1nc(NCc2cnn([C@@H](C)c3ccc(C(F)(F)F)nc3)c2)nc2c1NC(=O)[C@H](C)N2C [Compound 174, (7S)-4,7,8-Trimethyl-2-(((1-((S)-1-(6-(trifluoromethyl)pyridin-3-yl)ethyl)-1H-pyrazol-4-yl)methyl)amino)-7,8-dihydropteridin-6(5H)-one]	22
Cc1nc(NCc2cnn(Cc3ccc(C(F)(F)F)nc3)c2)nc2c1NC(=O)C1(CCC1)N2C [Compound 398, 4′,8′-dimethyl-2′-(((1-((6-(trifluoromethyl)pyridin-3-yl)methyl)-1H-pyrazol-4-yl)methyl)amino)-5′,8′-dihydro-6′H-spiro[cyclobutane-1,7′-pteridin]-6′-one]	83
Cc1nc(NCc2cnn([C@@H]3C[C@@H]3c3ccc(F)cc3)c2)nc2c1NC(=O)[C@H](C)N2C [Compound 154, (7S)-2-(((1-((1R,2R)-2-(4-fluorophenyl)cyclopropyl)-1H-pyrazol-4-yl)methyl)amino)-4,7,8-trimethyl-7,8-dihydropteridin-6(5H)-one]	24
Cc1nc(NCc2cnn(Cc3ccc(C(F)(F)F)nc3)c2)nc2c1NC(=O)[C@H](C(C)C)N2C [Compound 383, (7S)-7-isopropyl-4,8-dimethyl-2-(((1-((6-(trifluoromethyl)pyridin-3-yl)methyl)-1H-pyrazol-4-yl)methyl)amino)-7,8-dihydropteridin-6(5H)-one]	36
Cc1nc(C(F)(F)F)ccc1Cn1cc(CNc2nc(C)c3c(n2)N(C)[C@@H](C)C(=O)N3)cn1 [Compound 188, (S)-4,7,8-trimethyl-2-(((1-((2-methyl-6-(trifluoromethyl)pyridin-3-yl)methyl)-1H-pyrazol-4-yl)methyl)amino)-7,8-dihydropteridin-6(5H)-one]	15
Cc1nc(N[C@H]2C[C@H](Oc3ccc(C(F)(F)F)nc3)C2)nc2c1NC(=O)[C@H](C)N2C [Compound 324, (7S)-4,7,8-trimethyl-2-((trans-3-((6-(trifluoromethyl)pyridin-3-yl)oxy)cyclobutyl)amino)-7,8-dihydropteridin-6(5H)-one]	16
Cc1nc(NCc2cnn(Cc3cc(C(F)(F)F)nn3C)c2)nc2c1NC(=O)[C@H](C(C)C)N2C [Compound 397, (7S)-7-Isopropyl-4,8-dimethyl-2-(((1-((1-methyl-3-(trifluoromethyl)-1H-pyrazol-5-yl)methyl)-1H-pyrazol-4-yl)methyl)amino)-7,8-dihydropteridin-6(5H)-one]	23
Cc1cc(F)ncc1Cn1cc(CNc2nc(C)c3c(n2)N(C)[C@@H](C(C)C)C(=O)N3)cn1 [Compound 423, (7S)-2-(((1-((6-fluoro-4-methylpyridin-3-yl)methyl)-1H-pyrazol-4-yl)methyl)amino)-7-isopropyl-4,8-dimethyl-7,8-dihydropteridin-6(5H)-one]	70
